Holding throughout (assay type): in vivo
The subject of data set [1] is Dutch Belted rabbit corneal epithelium. Briefly: Corneal scraping, rate of re-epithelialization (Example 2). The settings on record: rabbits; scraping on Study Day 71 after 63 days of drops; examined 1, 2, 3 days post-scraping; vs BSS. The procedure: On Study Day 71 (following 63 days of drops), corneal scrapings were performed as follows. Photographs of the uninstrumented eyes were taken after fluorescein staining. Fluorescein staining was performed as described in Example 1. The examined animals were then placed under general anesthesia using ketamine/xylazine also as described in Example 1. Two (2) drops of proparacaine were instilled into both eyes of the examined animal as an anesthetic. The animal to be examined was then placed on an examination table with one eye gently proptosed. A 10×15 mm strip of epithelium from the central cornea was denuded with a sterile #11 scalpel blade (Feather Safety Razor Co., Ltd., Japan). The examined animal was then returned to the slit lamp, topical fluorescein was applied, and the eye was photographed. The animals were examined for reepithelialization at 1, 2, and 3 days post-scraping. Photographs were taken and the rate of re-epithelialization was determined and documented.

In a further data set the test system is Dutch Belted rabbit eyes. Kind of data set: Histopathology of eyes after corneal scraping (Example 2). The settings on record: one of the four glyceraldehyde treated eyes; presumably due to scraping. The procedure:
The study animals were sacrificed on Study Day 74 with an intravenous injection of pentobarbital (2 mg/kg). Eyes from the study animals were enucleated immediately post-sacrifice and placed in labeled tubes containing approximately 5 mL of half-strength Kamovsky's fixative (2.5% glutaraldehyde, 2.5% paraformaldehyde, 2.5 mM CaCl2, 100 mM Na Cacodylate, pH 7.4) for approximately 1 hour. The eyes were removed and small windows (1×3 mm) were made in the cornea/iris to allow penetration of the fixative to the vitreous. The eyes were then placed in 25 mL of fresh fixative. The fixed eyes were then sent to Consolidated Veterinary Diagnostics, Inc. (West Sacramento, Calif.) where they underwent routine tissue processing, sectioning, and staining with hematoxylin/eosin. They were examined by a Board Certified Veterinary Pathologist.
The eyes which had undergone corneal scraping and a subsequent healing period were sent to Consolidated Veterinary Diagnostics for tissue processing and pathologic interpretation. In toto, 4 eyes from the glyceraldehyde treated group and 2 eyes from the BSS group were evaluated. […] This description would imply a response to injury (presumably the scraping).

Data set [2] deals with eyes of myopic human subjects. Kind of data set: Mild myopia study, group III: corrective lenses and 3% glyceraldehyde without hyaluronidase (Example 9). The settings on record: for UVA at follow-up after end of treatment: no hyaluronidase. The text has this:
Given the favorable results obtained in Example 8, an additional study was undertaken to test the safety and efficacy of the method of the present invention using a larger group of subjects. In this study, a group of subjects were selected and randomly separated into three test groups to test the safety and efficacy of using hyaluronidase and a glyceraldehyde solution for treating subjects with sub-optimal visual acuity. Groups one and two received an intrastromal injection of hyaluronidase (50 and 500 IU, respectively), while group three received a control injection of saline.
Following a two week incubation period after the injection, the three groups were fitted with corrective lenses to optimize the visual acuity of the subjects. The corrective lenses were left in place for a period of time sufficient to alter the shape of the subjects' eyes so as to achieve an optimal visual acuity. This period of time was generally 2 days in length. Once an acceptable visual acuity was achieved, the subjects in the three groups received a topical 3% glyceraldehyde solution in the form of ophthalmic drops four times per day while wearing the corrective lenses. The glyceraldehyde treatment was generally administered for one month. Lens wear occurred from 8 to 12 hours during the day.
At the end of the treatment period both the lens wear and the glyceraldehyde solution administration was terminated. The general health and visual acuity of the subjects was monitored from 3 to 5 months following treatment termination.
As with groups I and II, the test subjects were examined initially to establish a baseline from which the future results of the treatment were compared. Following the establishment of a baseline reading, group III subjects were fitted with contact lenses and wore the corrective lenses at night for a period of two (2) to seven (7) days or until an acceptable visual acuity (approximately 20/20) was achieved. Unlike groups I and II, group III test subjects in this group received no injection of hyaluronidase during the course of treatment. Subjects achieving an acceptable visual acuity received the topical 3% glyceraldehyde solution in the form of ophthalmic drops four times per day (08:00, 12:00, 16:00, and 20:00) for a period of 1 month in conjunction with daytime lens wear for stabilization. During this period, lens wear occurred for approximately 8-12 hours per day and there was no nocturnal lens wear.
The subjects were examined periodically during the glyceraldehyde treatment to monitor changes in the health of the treated eyes.
At the end of the treatment period, the stabilizing lens were removed and the administration of the 3% glyceraldehyde solution was terminated. Following termination of the treatment, the subjects were examined immediately after treatment was terminated, once a week for the first four weeks after termination, and then monthly to measure changes in the visual acuity of the treated eyes. The health of the eye was also monitored. Sequelae characterized by the appearance or worsening of serious ocular symptoms or slit-lamp findings observed during these examinations was assessed. The proportions of subjects with such findings were analyzed.
The visual acuity values shown are obtained using the Snellen letters test and the Early Treatment Diabetic Retinopathy Study (ETDRS) protocol. The table values shown are the better values as compared between the results of the two methods. The subjects' baseline visual acuity ranged from 20/80 to 20/300.

Data set [3] relates to eyes of myopic human subjects. The data set is described as above. The settings on record: no hyaluronidase; subject 011; three month follow-up point; baseline 20/20.

Take `O=CC(O)CO` (stereo not drawn) [glyceraldehyde]: in data set [1], the “healing rate of scraped corneas (re-epithelialization)” value is “healed at a rate equivalent to those of the control”. Besides, the “pathologic finding in eyes after scraping and healing” value in the data set on Dutch Belted rabbit eyes was “superficial scar in the corneal stroma and disruption of Bowman's membrane”. The “overall effect on retention of orthokeratology benefits” value in data set [2] (glyceraldehyde treatment in the absence of hyaluronidase) was “effective in extending the retention time”. Also, the “UVA at follow-up after end of treatment” value in data set [2] (subject 005, four month time point, baseline 20/100) is on record as 20/100; in data set [2] (subject 006, five month time point, baseline 20/200) it was 20/100; in data set [2] (subject 012, four month time point, baseline 20/200) it was 20/100; in data set [2] (subject 014, three month time point, baseline 20/80), 20/50; in data set [2] (subject 016, four month time point, baseline 20/300), 20/80; in data set [2] (subject 016, three month point, baseline 20/300), 20/60. Further, the “UVA at follow-up after end of treatment” value in data set [2] (subject 021, two month time point, baseline 20/80) was 20/60; in data set [2] (subject 032, two month time point, baseline 20/120) it was 20/60; in data set [3], 20/40.

(Values after US6537545B1, “Use of corneal hardening agents in enzymeorthokeratology” (ISTA Pharmaceuticals, Inc., priority 1998, dated 2003).)
